Results reported in PMC5218480 (PLoS ONE, 2017).

Test system: MV-4-11 cells
Test: Gene expression microarray analysis (Affymetrix PrimeView) and GSEA
Type: cell-based, human
Design: RFU PODN (11730768_x_at) / Fold change /veh PODN (11730768_x_at) / RFU LINC00158 (11744669_a_at) / Fold change /veh LINC00158 (11744669_a_at) / RFU DUSP10 (11751237_a_at) / Fold change /veh DUSP10 (11751237_a_at) / RFU ID3 (11757404_x_at) / Fold change /veh ID3 (11757404_x_at) / RFU PLEKHG5 (11737974_s_at) / Fold change /veh PLEKHG5 (11737974_s_at) / RFU LRRC4B (11730491_at) / Fold change /veh LRRC4B (11730491_at) / RFU GIMAP4 (11747438_a_at) / Fold change /veh GIMAP4 (11747438_a_at) / RFU KRT8 (11758183_x_at) / Fold change /veh KRT8 (11758183_x_at) / RFU CNN1 (11734310_a_at) / Fold change /veh CNN1 (11734310_a_at) / RFU VPS37D (11726825_at) / Fold change /veh VPS37D (11726825_at) / RFU C10orf10 (11716522_x_at) / Fold change /veh C10orf10 (11716522_x_at) / RFU KIR2DL2 /// KIR2DL4 /// KIR2DL5A /// KIR2DL5B /// KIR2DS1 /// KIR2DS2 /// KIR2DS3 /// KIR2DS4 /// KIR3DL3 /// KIR3DL3 /// KIR3DS1 (11738374_at) / Fold change /veh KIR2DL2 /// KIR2DL4 /// KIR2DL5A /// KIR2DL5B /// KIR2DS1 /// KIR2DS2 /// KIR2DS3 /// KIR2DS4 /// KIR3DL3 /// KIR3DL3 /// KIR3DS1 (11738374_at) / RFU C1QL1 (11718748_at) / Fold change /veh C1QL1 (11718748_at) / RFU TMPRSS4 (11747572_a_at) / Fold change /veh TMPRSS4 (11747572_a_at) / RFU HAMP (11756126_x_at) / Fold change /veh HAMP (11756126_x_at) / RFU RNFT2 (11725882_a_at) / Fold change /veh RNFT2 (11725882_a_at) / RFU NR4A2 (11747474_a_at) / Fold change /veh NR4A2 (11747474_a_at) / RFU ABCC12 (11746883_a_at) / Fold change /veh ABCC12 (11746883_a_at) / RFU TMEM136 (11760407_x_at) / Fold change /veh TMEM136 (11760407_x_at) / RFU CLDN22 /// WWC2 (11732394_at) / Fold change /veh CLDN22 /// WWC2 (11732394_at) / RFU HLA-DPB1 (11760878_x_at) / Fold change /veh HLA-DPB1 (11760878_x_at) / RFU SPINT1 (11716480_a_at) / Fold change /veh SPINT1 (11716480_a_at) / RFU GAP43 (11754022_s_at) / Fold change /veh GAP43 (11754022_s_at) / RFU A4GNT (11735810_at) / Fold change /veh A4GNT (11735810_at) / RFU PRB3 (11715151_x_at) / Fold change /veh PRB3 (11715151_x_at) / RFU TUBB4B (11761932_at) / Fold change /veh TUBB4B (11761932_at) / RFU CAPN14 (11732068_a_at) / Fold change /veh CAPN14 (11732068_a_at) / RFU TMCC2 (11721928_a_at) / Fold change /veh TMCC2 (11721928_a_at) / RFU IRGQ (11745062_a_at) / Fold change /veh IRGQ (11745062_a_at) / RFU FAM174B (11720279_a_at) / Fold change /veh FAM174B (11720279_a_at) / RFU TMPRSS4 (11748680_a_at) / Fold change /veh TMPRSS4 (11748680_a_at) / RFU FAM212B (11763350_a_at) / Fold change /veh FAM212B (11763350_a_at) / RFU PLEKHG5 (11743358_a_at) / Fold change /veh PLEKHG5 (11743358_a_at) / RFU ZSCAN30 (11745921_a_at) / Fold change /veh ZSCAN30 (11745921_a_at) / RFU CMKLR1 (11741424_a_at) / Fold change /veh CMKLR1 (11741424_a_at) / RFU LOC101060620 /// MAPK8IP1 (11723275_at) / Fold change /veh LOC101060620 /// MAPK8IP1 (11723275_at) / RFU SPTSSB (11747773_x_at) / Fold change /veh SPTSSB (11747773_x_at) / RFU PRSS12 (11739890_at) / Fold change /veh PRSS12 (11739890_at) / RFU BIN1 (11741810_x_at) / Fold change /veh BIN1 (11741810_x_at) / RFU WNT11 (11732464_a_at) / Fold change /veh WNT11 (11732464_a_at) / RFU C10orf10 (11716521_a_at) / Fold change /veh C10orf10 (11716521_a_at) / RFU C5orf56 (11738089_at) / Fold change /veh C5orf56 (11738089_at) / RFU CYB561 (11721691_x_at) / Fold change /veh CYB561 (11721691_x_at) / RFU ANKRD19P (11752326_a_at) / Fold change /veh ANKRD19P (11752326_a_at) / RFU OR2T12 /// OR2T33 /// OR2T8 (11738714_s_at) / Fold change /veh OR2T12 /// OR2T33 /// OR2T8 (11738714_s_at) / RFU VCAN (11748164_a_at) / Fold change /veh VCAN (11748164_a_at) / RFU JSRP1 (11732532_at) / Fold change /veh JSRP1 (11732532_at) / RFU KRTAP10-11 (11738290_x_at) / Fold change /veh KRTAP10-11 (11738290_x_at) / RFU MYO3A (11730013_a_at) / Fold change /veh MYO3A (11730013_a_at) / RFU EBF3 (11725865_a_at) / Fold change /veh EBF3 (11725865_a_at) / RFU CAMK2N1 (11719241_x_at) / Fold change /veh CAMK2N1 (11719241_x_at) / RFU C5orf56 (11738088_a_at) / Fold change /veh C5orf56 (11738088_a_at) / RFU OLFML3 (11715873_a_at) / Fold change /veh OLFML3 (11715873_a_at) / RFU LOC100653217 /// NTM (11731650_a_at) / Fold change /veh LOC100653217 /// NTM (11731650_a_at) / RFU MAPK11 (11762145_a_at) / Fold change /veh MAPK11 (11762145_a_at) / RFU FIZ1 (11724087_x_at) / Fold change /veh FIZ1 (11724087_x_at) / RFU OASL (11726364_x_at) / Fold change /veh OASL (11726364_x_at) / RFU SOX15 (11748057_x_at) / Fold change /veh SOX15 (11748057_x_at) / RFU CD79A (11719716_a_at) / Fold change /veh CD79A (11719716_a_at) / RFU HIST1H1D (11736915_at) / Fold change /veh HIST1H1D (11736915_at) / RFU CASKIN2 (11723855_a_at) / Fold change /veh CASKIN2 (11723855_a_at) / RFU LOC730098 (11760151_x_at) / Fold change /veh LOC730098 (11760151_x_at) / RFU OR4N2 (11742367_at) / Fold change /veh OR4N2 (11742367_at) / RFU PRRT2 (11749266_a_at) / Fold change /veh PRRT2 (11749266_a_at) / RFU SNX32 (11753110_a_at) / Fold change /veh SNX32 (11753110_a_at) / RFU CDHR5 (11726645_a_at) / Fold change /veh CDHR5 (11726645_a_at) / RFU RCAN1 (11760418_a_at) / Fold change /veh RCAN1 (11760418_a_at) / RFU FAM167A (11723789_a_at) / Fold change /veh FAM167A (11723789_a_at) / RFU FAM26E (11764081_at) / Fold change /veh FAM26E (11764081_at) / RFU ISYNA1 (11749810_s_at) / Fold change /veh ISYNA1 (11749810_s_at) / RFU ACY1 (11761880_at) / Fold change /veh ACY1 (11761880_at) / RFU 11764098_at / Fold change /veh 11764098_at / RFU SAMD14 (11745864_x_at) / Fold change /veh SAMD14 (11745864_x_at) / RFU NPB (11741838_a_at) / Fold change /veh NPB (11741838_a_at) / RFU TMPRSS6 (11731388_a_at) / Fold change /veh TMPRSS6 (11731388_a_at) / RFU KRTAP10-2 (11738614_at) / Fold change /veh KRTAP10-2 (11738614_at) / RFU ARHGAP8 /// PRR5-ARHGAP8 (11727945_x_at) / Fold change /veh ARHGAP8 /// PRR5-ARHGAP8 (11727945_x_at) / RFU KRTAP5-7 /// NADSYN1 (11734609_at) / Fold change /veh KRTAP5-7 /// NADSYN1 (11734609_at) / RFU RASL12 (11751679_a_at) / Fold change /veh RASL12 (11751679_a_at) / RFU CDKN2B (11736163_a_at) / Fold change /veh CDKN2B (11736163_a_at) / RFU PRF1 (11729649_at) / Fold change /veh PRF1 (11729649_at) / RFU, ZNF638 /// ZNF638-IT1 / Fold change vs veh, ZNF638 /// ZNF638-IT1 / RFU, PANK3 / Fold change vs veh, PANK3 / RFU, SH3YL1 / Fold change vs veh, SH3YL1 / RFU, ZEB2 / Fold change vs veh, ZEB2 / RFU, NRIP1 / Fold change vs veh, NRIP1 / RFU, PTTG1IP / Fold change vs veh, PTTG1IP / RFU, CAPN2 / Fold change vs veh, CAPN2 / RFU, MED14 / Fold change vs veh, MED14 / RFU, SNORA58 / Fold change vs veh, SNORA58 / RFU, C1orf63 / Fold change vs veh, C1orf63 / RFU, LRRFIP1 / Fold change vs veh, LRRFIP1 / RFU, NDUFAF7 / Fold change vs veh, NDUFAF7 / RFU, SLC12A2 / Fold change vs veh, SLC12A2 / RFU, IBTK / Fold change vs veh, IBTK / RFU, ESF1 / Fold change vs veh, ESF1 / Fold change vs veh, TMEM50B / RFU, TAOK1 / Fold change vs veh, TAOK1 / RFU, ACBD3 / Fold change vs veh, ACBD3 / RFU, TMA16 / Fold change vs veh, TMA16 / RFU, RWDD3 / Fold change vs veh, RWDD3 / RFU, BCAT1 / Fold change vs veh, BCAT1 / RFU, EDEM3 / Fold change vs veh, EDEM3 / RFU, TMEM33 / Fold change vs veh, TMEM33 / RFU, WDR75 / Fold change vs veh, WDR75 / RFU, AHCTF1 / Fold change vs veh, AHCTF1 / RFU, TFRC / Fold change vs veh, TFRC / RFU, ZDHHC17 / Fold change vs veh, ZDHHC17 / RFU, NOM1 / Fold change vs veh, NOM1 / RFU, ARL8B / Fold change vs veh, ARL8B / RFU, ZBTB11 / Fold change vs veh, ZBTB11 / RFU, TAMM41 / Fold change vs veh, TAMM41 / RFU, KIAA1704 /// LOC100996395 / Fold change vs veh, KIAA1704 /// LOC100996395 / RFU, ING1 / Fold change vs veh, ING1 / RFU, TRMT61B / Fold change vs veh, TRMT61B / RFU, FUBP3 / Fold change vs veh, FUBP3 / RFU, TP53 / Fold change vs veh, TP53 / RFU, TNKS2 / Fold change vs veh, TNKS2 / RFU, ZFP14 / Fold change vs veh, ZFP14 / RFU, ACTR2 / Fold change vs veh, ACTR2 / RFU, PPP3R1 / Fold change vs veh, PPP3R1 / RFU, PIK3R1 / Fold change vs veh, PIK3R1 / RFU, HNRNPA1 / Fold change vs veh, HNRNPA1 / RFU, RNF170 / Fold change vs veh, RNF170 / RFU, ZNF28 / Fold change vs veh, ZNF28 / RFU, RNGTT / Fold change vs veh, RNGTT / RFU, OGT / Fold change vs veh, OGT / RFU, BRD1 / Fold change vs veh, BRD1 / RFU, MARS / Fold change vs veh, MARS / RFU, ZNF655 / Fold change vs veh, ZNF655 / RFU, FAHD1 / Fold change vs veh, FAHD1 / RFU, BDP1 / Fold change vs veh, BDP1 / RFU, LRRCC1 / Fold change vs veh, LRRCC1 / RFU, ARID1A / Fold change vs veh, ARID1A / RFU, ZNF146 / Fold change vs veh, ZNF146 / RFU, ZNF330 / Fold change vs veh, ZNF330 / RFU, GPN3 / Fold change vs veh, GPN3 / RFU, C9orf123 / Fold change vs veh, C9orf123 / RFU, N4BP2L2 / Fold change vs veh, N4BP2L2 / RFU, ARFIP1 / Fold change vs veh, ARFIP1 / RFU, FAM179B / Fold change vs veh, FAM179B / RFU, BCL10 / Fold change vs veh, BCL10 / RFU, UHRF1BP1L / Fold change vs veh, UHRF1BP1L / RFU, BET1 / Fold change vs veh, BET1 / RFU, CNOT2 / Fold change vs veh, CNOT2 / RFU, ZNF268 / Fold change vs veh, ZNF268 / Fold change vs veh, ZNF507 / RFU, DGCR2 / Fold change vs veh, DGCR2 / RFU, WDSUB1 / Fold change vs veh, WDSUB1 / Fold change vs veh, HSP90B1 /// MIR3652 / RFU, ADSS / Fold change vs veh, ADSS / RFU, GK / Fold change vs veh, GK / RFU, ZNF148 / Fold change vs veh, ZNF148 / RFU, TAF9 / Fold change vs veh, TAF9 / RFU, SLC1A5 / Fold change vs veh, SLC1A5 / RFU, SLMO2 / Fold change vs veh, SLMO2 / RFU, ABCC4 / Fold change vs veh, ABCC4 / RFU, LOC101060439 /// RAP1B / Fold change vs veh, LOC101060439 /// RAP1B / RFU, RFX7 / Fold change vs veh, RFX7 / RFU, GTPBP10 / Fold change vs veh, GTPBP10 / RFU, CNEP1R1 / Fold change vs veh, CNEP1R1 / RFU, BIVM-ERCC5 /// ERCC5 / Fold change vs veh, BIVM-ERCC5 /// ERCC5 / RFU, ILF3 / Fold change vs veh, ILF3 / RFU 11762660_at / Fold change /veh 11762660_at / RFU VCAN (11757783_s_at) / Fold change /veh VCAN (11757783_s_at) / RFU DDX43 (11728927_at) / Fold change /veh DDX43 (11728927_at) / RFU KRT8 (11758188_x_at) / Fold change /veh KRT8 (11758188_x_at) / RFU NKD1 (11759106_at) / Fold change /veh NKD1 (11759106_at) / RFU SRD5A1 (11742802_a_at) / Fold change /veh SRD5A1 (11742802_a_at) / RFU TPSAB1 /// TPSB2 (11721975_s_at) / Fold change /veh TPSAB1 /// TPSB2 (11721975_s_at) / RFU GSTM3 (11746129_a_at) / Fold change /veh GSTM3 (11746129_a_at) / RFU IL23R (11737362_x_at) / Fold change /veh IL23R (11737362_x_at) / RFU TMEM51 (11727254_a_at) / Fold change /veh TMEM51 (11727254_a_at) / RFU PIWIL2 (11732686_x_at) / Fold change /veh PIWIL2 (11732686_x_at) / RFU ORM1 (11744905_x_at) / Fold change /veh ORM1 (11744905_x_at) / RFU CCDC152 (11743942_at) / Fold change /veh CCDC152 (11743942_at) / RFU ECM1 (11717891_a_at) / Fold change /veh ECM1 (11717891_a_at) / RFU IL23R (11748794_a_at) / Fold change /veh IL23R (11748794_a_at) / RFU TNFAIP8L3 (11732012_x_at) / Fold change /veh TNFAIP8L3 (11732012_x_at) / RFU MBOAT4 (11741988_at) / Fold change /veh MBOAT4 (11741988_at) / RFU 11764193_at / Fold change /veh 11764193_at / RFU TMEM53 (11763286_at) / Fold change /veh TMEM53 (11763286_at) / RFU MAGEB2 (11727129_at) / Fold change /veh MAGEB2 (11727129_at) / RFU TMEM200A (11744735_a_at) / Fold change /veh TMEM200A (11744735_a_at) / RFU CCDC152 (11751479_a_at) / Fold change /veh CCDC152 (11751479_a_at) / RFU FAM211A (11726209_a_at) / Fold change /veh FAM211A (11726209_a_at) / RFU RGS16 (11746705_a_at) / Fold change /veh RGS16 (11746705_a_at) / RFU VCAN (11755009_s_at) / Fold change /veh VCAN (11755009_s_at) / RFU RHOB (11743442_s_at) / Fold change /veh RHOB (11743442_s_at) / RFU RGS16 (11720943_a_at) / Fold change /veh RGS16 (11720943_a_at) / RFU RGS16 (11720944_at) / Fold change /veh RGS16 (11720944_at) / RFU, VPS4B / Fold change vs veh, VPS4B / RFU, CREB1 / Fold change vs veh, CREB1 / RFU, DNAJC13 / Fold change vs veh, DNAJC13 / RFU, GNAQ / Fold change vs veh, GNAQ / RFU, CDK5R1 / Fold change vs veh, CDK5R1 / RFU, ZRANB3 / Fold change vs veh, ZRANB3 / RFU, CUL4A / Fold change vs veh, CUL4A / RFU, CCNY / Fold change vs veh, CCNY / RFU, UFL1 / Fold change vs veh, UFL1 / RFU, COG3 / Fold change vs veh, COG3 / RFU, DIAPH2 / Fold change vs veh, DIAPH2 / RFU, SKA2 / Fold change vs veh, SKA2 / RFU, AFF3 / Fold change vs veh, AFF3 / RFU, LMF1 / Fold change vs veh, LMF1 / RFU, IPO11 / Fold change vs veh, IPO11 / RFU, DFFB / Fold change vs veh, DFFB / RFU, FOXP1 / Fold change vs veh, FOXP1 / RFU, CARD8 / Fold change vs veh, CARD8 / RFU, STRN3 / Fold change vs veh, STRN3 / RFU, ADK / Fold change vs veh, ADK / RFU, RASSF2 / Fold change vs veh, RASSF2 / RFU, WIPF1 / Fold change vs veh, WIPF1 / RFU, LARP1B / Fold change vs veh, LARP1B / RFU, RASA1 / Fold change vs veh, RASA1 / RFU, RB1 / Fold change vs veh, RB1 / RFU, PPFIA1 / Fold change vs veh, PPFIA1 / RFU, MAT2A / Fold change vs veh, MAT2A / RFU, CCT5 / Fold change vs veh, CCT5 / RFU, WDR92 / Fold change vs veh, WDR92 / RFU, CUX1 / Fold change vs veh, CUX1 / RFU, TTC7A / Fold change vs veh, TTC7A / RFU, TMEM135 / Fold change vs veh, TMEM135 / RFU, DEPTOR / Fold change vs veh, DEPTOR / RFU, CPM / Fold change vs veh, CPM / RFU, DNAJB6 / Fold change vs veh, DNAJB6 / RFU, CACNA2D3 / Fold change vs veh, CACNA2D3 / RFU, DTX4 / Fold change vs veh, DTX4 / RFU, TFCP2 / Fold change vs veh, TFCP2 / RFU, GMCL1 /// GMCL1P1 / Fold change vs veh, GMCL1 /// GMCL1P1 / RFU, AEBP2 / Fold change vs veh, AEBP2 / RFU, SNHG1 /// SNORD22 /// SNORD25 /// SNORD26 /// SNORD27 /// SNORD28 /// SNORD29 /// SNORD31 / Fold change vs veh, SNHG1 /// SNORD22 /// SNORD25 /// SNORD26 /// SNORD27 /// SNORD28 /// SNORD29 /// SNORD31 / Fold change (Aza/veh), C12orf56 (ProbeSet 11735607_a_at) / Fold change (ACY-1035/veh), C12orf56 (ProbeSet 11735607_a_at) / Fold change (Aza/veh), FGFR1OP (ProbeSet 11751329_s_at) / Fold change (ACY-1035/veh), FGFR1OP (ProbeSet 11751329_s_at) / Fold change (Aza/veh), VPS36 (ProbeSet 11739960_a_at) / Fold change (ACY-1035/veh), VPS36 (ProbeSet 11739960_a_at) / RFU SYPL1 (11715823_x_at) / Fold change /veh SYPL1 (11715823_x_at) / RFU IGFBP7 (11715501_s_at) / Fold change /veh IGFBP7 (11715501_s_at) / RFU REEP3 (11722064_at) / Fold change /veh REEP3 (11722064_at) / RFU IGLL1 (11728026_x_at) / Fold change /veh IGLL1 (11728026_x_at): dose or concentration left out as unconfirmed
Conditions: ProbeSet 11720270_a_at; LIST B

Nc1ccc(-c2cccs2)cc1NC(=O)c1ccc2c(c1)cc(C1CC1)n2CCN1CCOCC1 [ACY-1035]
RFU, IBTK: 373.26 RFU
